One experiment relates to HMC-1-8 cells. The experiment in a line: Antiproliferation assay HMC-1-8 (Assay 7). It counts as cell-based. Summed up:
(§1)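 CTG luminescence readout; cells plated, overnight at 37 °C, then 72 h compound treatment. Time-zero plate read in parallel. IC50 from day 0 and DMSO-normalised signal.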

Another experiment concerns the target BCL-XL (Homo sapiens (Human), UniProt Q07817). The experiment in a line: Protein-protein interaction assay BCL-XL/Bad BH3 peptide (BCL-XL assay, TR-FRET). The class given is binding. To be noted: read-out: BCL-XL Assay IC50 (median). Summed up:
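Human BCL-XL (aa 1-212, C-terminal His6, E. coli) at 1 nM end concentration, preincubated 10 min at 22 °C with compound (11 concentrations, 0.1 nM–20 μM, duplicates), then biotinylated Bad BH3 peptide (1 nM) added with anti-His-Eu cryptate/streptavidin-XL665. Incubation 1 h at 22 °C then overnight at 4 °C; TR-FRET 665/620 ratio, IC50 from 4-parameter fit.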
For orientation: TR-FRET usually uses a lanthanide donor and a delayed reading to cut background.

A further experiment concerns SUDHL5 cells. The experiment in a line: Antiproliferation assay SUDHL5 (Assay 7). The class given is cell-based. The procedure, abridged:
as §1

[1] abbreviates: 72 h, CellTiter-Glo; read-out: Antiproli HMC-1-8 IC50 median.
[2] abbreviates: Homo sapiens, SU-DHL-5, 72 h, 72 h, CellTiter-Glo; read-out: Antiproli SUDHL5 IC50 (median).
Setting [3] is: 72 h, CellTiter-Glo; read-out: Antiproli SUDHL5 IC50 (median).
[4] abbreviates: read-out: Antiproli HMC-1-8 IC50 median; 72 h, CellTiter-Glo.
The mark [5] stands for this setting: read-out: Antiproli SUDHL5 IC50 (median); 72 h, CellTiter-Glo.

Experimental findings from patent US11440923B2, “Substituted macrocyclic indole derivatives” (Bayer Aktiengesellschaft, priority 2017, dated 2022) are described below.

Counter-ions that a name gives are not always drawn. Like-named read-outs stand apart in the source and are kept apart here.

BCL-XL, sequence (Q07817 1-212): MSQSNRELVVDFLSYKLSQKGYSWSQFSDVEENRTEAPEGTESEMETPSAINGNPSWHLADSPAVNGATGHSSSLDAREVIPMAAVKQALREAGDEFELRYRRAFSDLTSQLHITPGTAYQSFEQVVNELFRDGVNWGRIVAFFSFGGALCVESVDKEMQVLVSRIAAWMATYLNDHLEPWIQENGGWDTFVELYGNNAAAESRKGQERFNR

As a reminder, the IC50 is the concentration needed to halve the response being measured. Turning to `CCc1c2c(nn1C)C(CCO)OCCCCn1c(C(=O)O)c(CCCOc3cccc4cc(F)ccc34)c3ccc(Cl)c-2c31` (single isomer, unassigned; enantiomer 1) [Example 45, (+)-4-chloro-3-ethyl-7-{3-[(6-fluoronaphthalen-1-yl)oxy]propyl}-15-(2-hydroxyethyl)-2-methyl-2,10,11,12,13,15-hexahydropyrazolo[4′,3′:9,10][1,6]oxazacycloundecino[8,7,6-hi]indole-8-carboxylic Acid (Enantiomer 1)], the IC50 in the experiment on HMC-1-8 cells (setting [1]) is 2.14 µM; on BCL-XL it was over 20 µM; with SUDHL5 cells (setting [2]), 0.095 µM.

Regarding `CCc1c2c(nn1C)C(CCN1CCOCC1)OCCCCn1c(C(=O)O)c(CCCOc3cccc4cc(F)ccc34)c3ccc(F)c-2c31` (single isomer, unassigned; enantiomer 1) [Example 50, (+)-3-ethyl-4-fluoro-7-{3-[(6-fluoronaphthalen-1-yl)oxy]propyl}-2-methyl-15-[2-(morpholin-4-yl)ethyl]-2,10,11,12,13,15-hexahydropyrazolo[4′,3′:9,10][1,6]oxazacycloundecino[8,7,6-hi]indole-8-carboxylic Acid (Enantiomer 1)], the values for the IC50 with HMC-1-8 cells (setting [1]), at BCL-XL and in the experiment on SUDHL5 cells (setting [3]) were 0.392 µM, over 20 µM and 0.011 µM, respectively.

With `CCc1c2c(nn1C)C(CC(C)(C)O)OCCCCn1c(C(=O)O)c(CCCOc3cccc4cc(F)ccc34)c3ccc(Cl)c-2c31` (single isomer, unassigned; enantiomer 1) [Example 53, (+)-4-chloro-3-ethyl-7-{3-[(6-fluoronaphthalen-1-yl)oxy]propyl}-15-(2-hydroxy-2-methylpropyl)-2-methyl-2,10,11,12,13,15-hexahydropyrazolo[4′,3′:9,10][1,6]oxazacycloundecino[8,7,6-hi]indole-8-carboxylic Acid—N-ethylethanamine Salt (Enantiomer 1)], the figures for the IC50 with HMC-1-8 cells (setting [4]), on BCL-XL and with SUDHL5 cells (setting [5]) were 0.983 µM, 11 µM and 0.099 µM, respectively.

Consider `Cc1c2c(nn1C)C(CCN1CCOCC1)OCCCCn1c(C(=O)O)c(CCCOc3cccc4cc(F)ccc34)c3ccc(F)c-2c31` (single isomer, unassigned; enantiomer 2) [Example 21, 4-fluoro-7-{3-[(6-fluoronaphthalen-1-yl)oxy]propyl}-2,3-dimethyl-15-[2-(morpholin-4-yl)ethyl]-2,10,11,12,13,15-hexahydropyrazolo[4′,3′:9,10][1,6]oxazacycloundecino[8,7,6-hi]indole-8-carboxylic Acid (Enantiomer 2)], for which the IC50 in the experiment on HMC-1-8 cells (72 h, CellTiter-Glo, read-out: Antiproli HMC-1-8 IC50 median) was 13.3 µM; at BCL-XL it was over 20 µM; in the experiment with SUDHL5 cells (setting [2]) it was 3.4 µM.

`Cc1c2c(nn1C)C(CCO)OCCCCn1c(C(=O)O)c(CCCOc3cccc4ccccc34)c3ccc(Cl)c-2c31` (single isomer, unassigned; enantiomer 2) [Example 32, (−)-4-chloro-15-(2-hydroxyethyl)-2,3-dimethyl-7-{3-[(naphthalen-1-yl)oxy]propyl}-2,10,11,12,13,15-hexahydropyrazolo[4′,3′:9,10][1,6]oxazacycloundecino[8,7,6-hi]indole-8-carboxylic Acid (Enantiomer 2)]: the IC50 with HMC-1-8 cells (setting [1]) was over 33 µM; at BCL-XL, over 20 µM; with SUDHL5 cells (setting [3]), 26 µM.

Take `CCc1c2c(nn1C)C(CCN1CCOCC1)OCCCCn1c(C(=O)O)c(CCCOc3cccc4cc(F)ccc34)c3ccc(F)c-2c31` (single isomer, unassigned; enantiomer 2) [Example 51, (−)-3-ethyl-4-fluoro-7-{3-[(6-fluoronaphthalen-1-yl)oxy]propyl}-2-methyl-15-[2-(morpholin-4-yl)ethyl]-2,10,11,12,13,15-hexahydropyrazolo[4′,3′:9,10][1,6]oxazacycloundecino[8,7,6-hi]indole-8-carboxylic Acid (Enantiomer 2)]: the figures for the IC50 in the experiment on HMC-1-8 cells (setting [1]), on BCL-XL and in the experiment on SUDHL5 cells (setting [3]) were 22 µM, over 20 µM and 2.3 µM, respectively.

As to `CCc1c2c(nn1C)C(CCN1CCC(F)(F)C1)OCCCCn1c(C(=O)O)c(CCCOc3cccc4cc(F)ccc34)c3ccc(Cl)c-2c31` (single isomer, unassigned; enantiomer 2) [Example 57, 4-chloro-15-[2-(3,3-difluoropyrrolidin-1-yl)ethyl]-3-ethyl-7-{3-[(6-fluoronaphthalen-1-yl)oxy]propyl}-2-methyl-2,10,11,12,13,15-hexahydropyrazolo[4′,3′:9,10][1,6]oxazacycloundecino[8,7,6-hi]indole-8-carboxylic Acid N-ethylethanamine Salt (Enantiomer 2)], the IC50 in the experiment with HMC-1-8 cells (setting [4]) is 13.6 µM; at BCL-XL, over 20 µM; in the experiment with SUDHL5 cells (setting [5]) it was 8.7 µM.

For the molecule `CCc1c2c(nn1C)C(CCC1CCOCC1)OCCCCn1c(C(=O)O)c(CCCOc3cccc4cc(F)ccc34)c3ccc(Cl)c-2c31` (single isomer, unassigned; enantiomer 2) [Example 62, (−)-4-chloro-3-ethyl-7-{3-[(6-fluoronaphthalen-1-yl)oxy]propyl}-2-methyl-15-[2-(oxan-4-yl)ethyl]-2,10,11,12,13,15-hexahydropyrazolo[4′,3′:9,10][1,6]oxazacycloundecino[8,7,6-hi]indole-8-carboxylic Acid (Enantiomer 2)], the IC50 in the experiment on HMC-1-8 cells (setting [1]) was 21.9 µM; on BCL-XL, over 20 µM; in the experiment with SUDHL5 cells (setting [3]), 5.3 µM.

Take `CCc1c2c(nn1C)C(CC(C)(C)O)OCCCCn1c(C(=O)O)c(CCCOc3cccc4cc(F)ccc34)c3ccc(Cl)c-2c31` (single isomer, unassigned; enantiomer 21) [Example 54, (−)-4-chloro-3-ethyl-7-{3-[(6-fluoronaphthalen-1-yl)oxy]propyl}-15-(2-hydroxy-2-methylpropyl)-2-methyl-2,10,11,12,13,15-hexahydropyrazolo[4′,3′:9,10][1,6]oxazacycloundecino[8,7,6-hi]indole-8-carboxylic Acid—N-ethylethanamine Salt (Enantiomer 21]: the figures for the IC50 with HMC-1-8 cells (setting [4]), on BCL-XL and in the experiment with SUDHL5 cells (setting [5]) were 20.2 µM, 14.3 µM and 13 µM, respectively.
